Results published in ChEMBL document CHEMBL1201862, “PubChem BioAssay data set” (2004).
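Cells were grown in 96-well plates and exposed to each compound for 48 hours at five concentrations; endpoints were interpolated linearly between bracketing concentrations, or set to the highest concentration if not reached. GI50 marks 50% less growth.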 Active and inactive are the calls of the source. Cut-off read from the data, not from the text of the source: active = GI50 up to about 1.1 µM and inactive = higher.

Legend:
Assay in all cases: NCI-60 cell line screen, 48 h
HCC 2998 = test system: HCC 2998
A549 = test system: A549
SK-MEL-28 = test system: SK-MEL-28
U-251 = test system: U-251
MDA-MB-435 = test system: MDA-MB-435
DU-145 = test system: DU-145
NCI/ADR-RES = test system: NCI/ADR-RES
MDA-N = test system: MDA-N
SF-539 = test system: SF-539
RPMI-8226 = test system: RPMI-8226
OVCAR-8 = test system: OVCAR-8
K562 = test system: K562
HCT-116 = test system: HCT-116
SF-268 = test system: SF-268
SN12C = test system: SN12C
KM12 = test system: KM12
CCRF-CEM = test system: CCRF-CEM
IGROV-1 = test system: IGROV-1
SNB-75 = test system: SNB-75
MDA-MB-231 = test system: MDA-MB-231

Measured: GI50

COC(=O)C(Cc1c[nH]c2ccccc12)NP(=O)(O)OCC1OC(n2cc(F)c(=O)[nH]c2=O)CC1O (stereo not given)
inactive: HCC 2998 99.3 µM | A549 10.4 µM | SK-MEL-28 > 100 µM | U-251 > 100 µM | MDA-MB-435 > 100 µM | DU-145 43.9 µM | NCI/ADR-RES 37.2 µM | MDA-N > 100 µM | SF-539 4.71 µM | RPMI-8226 31.3 µM | OVCAR-8 65.9 µM | K562 > 100 µM | HCT-116 14.5 µM | SF-268 4.94 µM | SN12C > 64.4 µM | KM12 > 96.2 µM | CCRF-CEM 3.59 µM | IGROV-1 > 71.1 µM | SNB-75 > 63.7 µM | MDA-MB-231 > 100 µM

COc1ccc2oc(=O)c3c(c2c1C)OC(C)(C)C=C3
inactive: HCC 2998 > 100 µM | A549 > 100 µM | SK-MEL-28 > 100 µM | U-251 > 100 µM | MDA-MB-435 > 100 µM | DU-145 > 100 µM | NCI/ADR-RES > 100 µM | MDA-N > 100 µM | SF-539 > 100 µM | RPMI-8226 > 100 µM | OVCAR-8 > 100 µM | K562 > 100 µM | HCT-116 > 100 µM | SF-268 23.2 µM | SN12C > 100 µM | KM12 > 100 µM | CCRF-CEM > 100 µM | IGROV-1 > 100 µM | SNB-75 > 100 µM | MDA-MB-231 > 100 µM

CCCCCCCC1C(C)c2c([nH]c3ccccc23)C2C(=O)N(c3ccc(OC)cc3)C(=O)C21 (stereo not given)
inactive: HCC 2998 7.6 µM | A549 2.33 µM | SK-MEL-28 5.48 µM | U-251 1.92 µM | MDA-MB-435 3.33 µM | DU-145 > 8.3 µM | NCI/ADR-RES 1.7 µM | MDA-N 4.22 µM | SF-539 2.69 µM | RPMI-8226 > 5.73 µM | OVCAR-8 2.52 µM | K562 3.11 µM | HCT-116 1.79 µM | SF-268 3.72 µM | SN12C 2.59 µM | KM12 6.34 µM | CCRF-CEM 2.61 µM | IGROV-1 > 5.89 µM | SNB-75 1.95 µM | MDA-MB-231 3.82 µM

Cn1cc(S(=O)(=O)NC(=O)Nc2ccc(Cl)cc2)c2ccccc21
inactive: HCC 2998 51.4 µM | A549 63.4 µM | SK-MEL-28 > 100 µM | U-251 41.9 µM | MDA-MB-435 52.1 µM | DU-145 49.2 µM | NCI/ADR-RES 38.6 µM | MDA-N 27.4 µM | SF-539 11.1 µM | RPMI-8226 > 100 µM | OVCAR-8 82.2 µM | K562 > 100 µM | HCT-116 32.4 µM | SF-268 > 100 µM | SN12C > 100 µM | KM12 28.5 µM | CCRF-CEM > 100 µM | IGROV-1 13.3 µM | SNB-75 > 100 µM | MDA-MB-231 > 100 µM
